Results taken from ChEMBL document CHEMBL1155967, “Design, synthesis, and examination of neuron protective properties of alkenylated and amidated dehydro-silybin derivatives” (J Med Chem, 2009).
Activity calls are given as the source filed them. The calls are words filed in the database; no cut-off is given here.

How the values were obtained:
[1] = test system: Radical scavenging activity; assay: Antioxidant activity assessed as DPPH radical scavenging activity at 50 uM after 30 mins by spectrophotometry; type: functional
[2] = Antioxidant activity assessed as superoxide anion scavenging activity at 50 uM after 5 mins by spectrophotometry; type: functional
[3] = target: T1, Xanthine dehydrogenase/oxidase (Rattus norvegicus, UniProt P22985); assay: Inhibition of rat liver xanthine oxidase at 75 uM after 2 hrs by spectrophotometry; settings: for inhibition (INH): 75 µM
Liver [4] = assay: Inhibition of lipid peroxidation in Sprague-Dawley rat liver homogenate assessed as malondialdehyde formation after 1 hr by TBARS assay; type: functional, tissue-based
PC-12 [5] = assay: Neuroprotective activity against H2O2-induced injury in rat PC12 cells at 12.5 to 50 uM treated 2 hrs before H2O2 challenge measured after 4 hrs by MTT assay; type: functional, cell-based
[6] = Iron chelating activity assessed as inhibition of ferrozine-Fe2+ complex formation after 10 mins by spectrophotometry; type: functional
[7] = target: T1, Xanthine dehydrogenase/oxidase; assay: Inhibition of rat liver xanthine oxidase after 2 hrs by spectrophotometry
[8] = Iron chelating activity assessed as inhibition of ferrozine-Fe2+ complex formation at 150 uM after 10 mins by spectrophotometry; type: functional
PC-12 [9] = assay: Neuroprotective activity against H2O2-induced injury in rat PC12 cells treated 2 hrs before H2O2 challenge measured after 4 hrs by MTT assay; type: functional, cell-based
PC-12 [10] = assay: Neuroprotective activity against H2O2-induced injury in rat PC12 cells assessed as increase in cell viability at 50 uM treated 2 hrs before H2O2 challenge measured after 4 hrs by MTT assay; type: functional
Liver [11] = assay: Ratio of silybin IC50 to compound IC50 for inhibition of lipid peroxidation in Sprague-Dawley rat liver homogenate; type: functional, tissue-based
[12] = Ratio of quercetin EC50 to compound EC50 for iron chelating activity
Liver [13] = assay: Ratio of 2,3-dehydrosilybin IC50 to compound IC50 for inhibition of lipid peroxidation in Sprague-Dawley rat liver homogenate; type: functional, tissue-based
[14] = Ratio of 2,3-dehydrosilybin EC50 to compound EC50 for iron chelating activity; type: functional
Liver [15] = assay: Ratio of quercetin IC50 to compound IC50 for inhibition of lipid peroxidation in Sprague-Dawley rat liver homogenate; type: functional, tissue-based
[16] = test system: Radical scavenging activity; assay: Antioxidant activity assessed as DPPH radical scavenging activity after 30 mins by spectrophotometry; type: functional
[17] = Antioxidant activity assessed as superoxide anion scavenging activity after 5 mins by spectrophotometry; type: functional

T1 sequence (P22985 whole entry): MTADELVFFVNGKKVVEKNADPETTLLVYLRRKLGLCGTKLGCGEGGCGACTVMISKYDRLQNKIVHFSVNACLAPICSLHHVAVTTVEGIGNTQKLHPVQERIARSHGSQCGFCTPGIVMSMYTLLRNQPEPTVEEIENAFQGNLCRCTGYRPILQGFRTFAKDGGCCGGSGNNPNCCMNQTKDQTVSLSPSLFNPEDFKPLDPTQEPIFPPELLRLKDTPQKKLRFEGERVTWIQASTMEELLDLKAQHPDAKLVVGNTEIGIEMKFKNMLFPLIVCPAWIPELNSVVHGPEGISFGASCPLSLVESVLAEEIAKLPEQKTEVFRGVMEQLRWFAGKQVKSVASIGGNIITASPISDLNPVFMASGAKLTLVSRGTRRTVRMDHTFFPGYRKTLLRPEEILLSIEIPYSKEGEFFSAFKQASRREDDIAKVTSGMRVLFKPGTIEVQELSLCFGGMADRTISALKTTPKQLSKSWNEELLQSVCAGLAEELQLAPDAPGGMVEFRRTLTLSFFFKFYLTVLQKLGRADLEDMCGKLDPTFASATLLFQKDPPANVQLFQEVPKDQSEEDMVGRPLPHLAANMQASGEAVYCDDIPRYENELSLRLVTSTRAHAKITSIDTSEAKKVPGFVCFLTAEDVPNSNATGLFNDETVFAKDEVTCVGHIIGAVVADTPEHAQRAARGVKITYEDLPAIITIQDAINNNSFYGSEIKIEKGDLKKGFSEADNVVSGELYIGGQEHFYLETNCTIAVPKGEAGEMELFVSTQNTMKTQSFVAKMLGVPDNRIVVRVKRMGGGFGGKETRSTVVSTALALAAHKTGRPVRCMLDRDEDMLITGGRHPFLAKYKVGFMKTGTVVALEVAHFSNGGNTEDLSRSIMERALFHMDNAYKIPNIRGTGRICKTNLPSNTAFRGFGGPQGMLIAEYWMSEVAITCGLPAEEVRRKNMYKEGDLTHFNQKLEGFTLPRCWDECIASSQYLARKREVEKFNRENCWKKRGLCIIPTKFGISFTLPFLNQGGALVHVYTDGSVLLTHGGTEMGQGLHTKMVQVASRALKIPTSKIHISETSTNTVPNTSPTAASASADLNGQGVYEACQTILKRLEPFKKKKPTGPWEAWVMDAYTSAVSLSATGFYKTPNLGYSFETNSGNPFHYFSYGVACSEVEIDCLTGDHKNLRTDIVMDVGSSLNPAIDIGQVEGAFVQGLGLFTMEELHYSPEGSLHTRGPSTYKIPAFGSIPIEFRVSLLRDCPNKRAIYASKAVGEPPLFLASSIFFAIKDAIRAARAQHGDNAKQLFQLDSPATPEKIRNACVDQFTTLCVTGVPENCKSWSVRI

| SMILES | Activity [2] | inhibition (INH) [3] | IC50 (Liver [4]) [µM] | EC50 [6] [µM] | inhibition [8] [%] | EC50 (PC-12 [9]) [µM] | Activity (PC-12 [10]) [%] | further results |
| --- | --- | --- | --- | --- | --- | --- | --- | --- |
| O=C1O[C@H]([C@@H](O)CO)C(O)=C1O | – | – | – | – | – | – | – | inhibition [1]: 12.6% |
| COc1cc(C2Oc3cc(-c4oc5cc(OCC(=O)Nc6ccc(C)cc6)cc(O)c5c(=O)c4O)ccc3OC2CO)ccc1OCC(=O)Nc1ccc(C)cc1 (racemic) | inactive | Active | 74.1 | – | – | – | – | Activity (PC-12 [5]): Active |
| CCOC(=O)COc1cc(O)c2c(=O)c(O)c(-c3ccc4c(c3)OC(c3ccc(OCC(=O)OCC)c(OC)c3)C(CO)O4)oc2c1 (racemic) | inactive | – | 36.4 | 116 | 53.5 | – | – | inhibition at 75 µM [3]: > 50%; IC50 [7]: 70.8 µM |
| C=CCOc1cc(O)c2c(=O)c(O)c(-c3ccc4c(c3)OC(c3ccc(OCC=C)c(OC)c3)C(CO)O4)oc2c1 (racemic) | inactive | – | 22.6 | 129 | 72.5 | 20.5 | 40 | – |
| C=CCOc1cc(O)c2c(=O)c(OCC=C)c(-c3ccc4c(c3)OC(c3ccc(OCC=C)c(OC)c3)C(CO)O4)oc2c1 (racemic) | inactive | – | 54.8 | – | – | – | – | – |
| COc1cc(C2Oc3cc(-c4oc5cc(OCC(=O)Nc6ccc(Cl)cc6)cc(O)c5c(=O)c4O)ccc3OC2CO)ccc1OCC(=O)Nc1ccc(Cl)cc1 (racemic) | inactive | Active | 153 | – | – | – | – | Activity (PC-12 [5]): Active |
| COc1cc(C2Oc3cc(-c4oc5cc(OCC=C(C)C)cc(O)c5c(=O)c4O)ccc3OC2CO)ccc1OCC=C(C)C (racemic) | inactive | – | 28.1 | 138 | – | 47.4 | 40 | inhibition at 75 µM [3]: 18.9% |
| COc1ccc(NC(=O)COc2cc(O)c3c(=O)c(O)c(-c4ccc5c(c4)OC(c4ccc(OCC(=O)Nc6ccc(OC)cc6)c(OC)c4)C(CO)O5)oc3c2)cc1 (racemic) | inactive | Active | 37 | – | – | – | – | Activity (PC-12 [5]): Active |
| COc1cc(C2Oc3cc(-c4oc5cc(OCC(=O)Nc6ccc(Cl)cc6Cl)cc(O)c5c(=O)c4O)ccc3OC2CO)ccc1OCC(=O)Nc1ccc(Cl)cc1Cl (racemic) | inactive | Active | 20.7 | – | – | – | – | Activity (PC-12 [5]): Active |
| COc1cc(C2Oc3cc(-c4oc5cc(OCC(=O)N6CCCC6)cc(O)c5c(=O)c4O)ccc3OC2CO)ccc1OCC(=O)N1CCCC1 (racemic) | inactive | Active | 0.9 | 23.2 | 87 | – | – | Ratio IC50 (Liver [11]): 93; inhibition [1]: 44.2%; Ratio EC50 [12]: 7; Ratio IC50 (Liver [13]): 11; Ratio EC50 [14]: 4; Ratio IC50 (Liver [15]): 5; Activity (PC-12 [5]): Active |
| CCN(CC)C(=O)COc1cc(O)c2c(=O)c(O)c(-c3ccc4c(c3)OC(c3ccc(OCC(=O)N(CC)CC)c(OC)c3)C(CO)O4)oc2c1 (racemic) | inactive | Active | 5.8 | 59.9 | 63 | – | – | Activity (PC-12 [5]): Active |
| CCN(CC)C(=O)COc1cc(O)c2c(=O)c(O)c(-c3ccc4c(c3)OC(c3ccc(O)c(OC)c3)C(CO)O4)oc2c1 (racemic) | Active | Active | 0.7 | 113 | 52.5 | – | – | inhibition [1]: 46.4% |
| C=CCCOc1cc(O)c2c(=O)c(O)c(-c3ccc4c(c3)OC(c3ccc(OCCC=C)c(OC)c3)C(CO)O4)oc2c1 (racemic) | inactive | – | 36.2 | 145 | – | 37.7 | 40 | – |
| C=CCCOc1cc(O)c2c(=O)c(OCCC=C)c(-c3ccc4c(c3)OC(c3ccc(OCCC=C)c(OC)c3)C(CO)O4)oc2c1 (racemic) | inactive | – | 67.5 | – | – | 79.4 | 40 | – |
| COc1ccc(C(=O)OCC2Oc3ccc(-c4oc5cc(O)cc(O)c5c(=O)c4O)cc3OC2c2ccc(O)c(OC)c2)cc1 (racemic) | inactive | – | 104 | – | – | – | – | – |
| COc1cc(C2Oc3cc(-c4oc5cc(O)cc(O)c5c(=O)c4O)ccc3OC2COC(=O)c2cccc(Cl)c2)ccc1O (racemic) | inactive | – | 16.9 | – | – | 46.5 | 40 | – |
| COc1cc(C2Oc3cc(-c4oc5cc(OCC=C(C)C)cc(O)c5c(=O)c4O)ccc3OC2CO)ccc1O (racemic) | Active | – | 23.3 | 137 | 51 | 32 | 40 | – |
| Oc1ncnc2[nH]ncc12 [ALLOPURINOL] | – | – | – | – | – | – | – | IC50 [7]: 21.2 µM |
| COc1cc(C2Oc3cc(-c4oc5cc(O)cc(O)c5c(=O)c4O)ccc3OC2CO)ccc1O (stereo unspecified) [DEHYDROSILYLBIN] | – | – | 10.7 | 118 | 58 | 30.2 | 40 | inhibition [1]: 42.2%; IC50 [7]: 80.3 µM |
| O=C([O-])CN(CCN(CC(=O)[O-])CC(=O)O)CC(=O)O.[Na+].[Na+] [EDETATE DISODIUM ANHYDROUS] | – | – | – | 16.4 | 91.5 | – | – | – |
| O=c1c(O)c(-c2ccc(O)c(O)c2)oc2cc(O)cc(O)c12 [QUERCETIN] | – | – | 4.6 | 188 | 43.5 | 58.4 | – | EC50 [16]: 3.4 µM; EC50 [17]: 38.6 µM |
| COc1cc(C2Oc3cc([C@H]4Oc5cc(O)cc(O)c5C(=O)[C@@H]4O)ccc3OC2CO)ccc1O (stereo partly specified) [SILIBININ] | – | Not Active | 84.8 | – | – | – | – | IC50 [7]: 80.3 µM |
